pIC50: −log10 of the molar value.
Assays:
[1] = molecular target: T1, Bovine serum albumin (Fraction V) (Bos taurus, UniProt P02769); assay: Binding to BSA (incubation, HPLC-UV/MS); type: in vitro ADME; conditions: compound and BSA 1 mM each, 30 minutes at room temperature
T1 construct: Bovine serum albumin (Fraction V) (Sigma); purchased Sigma
Protocol: The compounds (working solution at 1 mM) were incubated during 30 minutes at room temperature with Glutathione (Sigma) and Bovine serum albumin (Fraction V) (Sigma) at equimolecular concentrations (1 mM). After this time the solution was filtrated and analysed by HPLC-UV/MS.
HPLC was performed with a symmetry C18 (2.1×150 mm, 3.5 μm) column using a Waters Alliance 2695 with a 2996 photodiode array and ZQ2000 mass spectrometer used for the analytical separation and for UV and mass determination. The gradient used for the elution was: […]
Flux: 0.25 mL/min; temp: 30° C.; Detection: 250 nm; Injection Volume: 10 μL

[2] = molecular target: Recombinant human glycogen synthase kinase 3β (Homo sapiens, UniProt P49841); assay: GSK-3β inhibition; type: biochemical; conditions: recombinant human GSK-3β, GS-2 62.5 μM, ATP 12.5 μM, 30 min at 30° C.
Protocol: The GSK-3β activity was determined by incubation of a mixture of recombinant human GSK-3 enzyme, a phosphate source and GSK-3 substrate in the presence and in the absence of the corresponding test compound, and by measuring the GSK-3 activity of this mixture.
The final assay volume was 20 μl. After incubation for 30 minutes at 30° C., 15 μl aliquots were spotted onto P81 phosphocellulose papers. Filters were washed four times for at least 10 minutes each and counted with 1.5 ml of scintillation cocktail in a scintillation counter.

[3] = Brain permeation and pharmacokinetics after oral and intravenous administration; type: in vivo, C57/BL6 mice; conditions: mice
Protocol: C57/BL6 mice (15-30 g) from Charles River laboratories Spain were used in this study. […] Water was available ad libitum. Animals were fasted for 4 hours before treatment, but with water ad libitum. They were fed 2 hours after administration.
The route of administration was a single oral administration at […] (10 mL/kg) and single intravenous administration at 2 mg/kg (10 mL/kg). An additional experiment was performed at 200 mg/kg by the oral route only to determine proportionality of absorption.
Blood was heparinized, and after centrifugation (3000 rpm, 10 mins, 5° C.), two plasma aliquots stored at −20° C. and −30° C. until analysis (HPLC/MS-MS).

Recombinant human glycogen synthase kinase 3β, sequence (P49841 whole entry): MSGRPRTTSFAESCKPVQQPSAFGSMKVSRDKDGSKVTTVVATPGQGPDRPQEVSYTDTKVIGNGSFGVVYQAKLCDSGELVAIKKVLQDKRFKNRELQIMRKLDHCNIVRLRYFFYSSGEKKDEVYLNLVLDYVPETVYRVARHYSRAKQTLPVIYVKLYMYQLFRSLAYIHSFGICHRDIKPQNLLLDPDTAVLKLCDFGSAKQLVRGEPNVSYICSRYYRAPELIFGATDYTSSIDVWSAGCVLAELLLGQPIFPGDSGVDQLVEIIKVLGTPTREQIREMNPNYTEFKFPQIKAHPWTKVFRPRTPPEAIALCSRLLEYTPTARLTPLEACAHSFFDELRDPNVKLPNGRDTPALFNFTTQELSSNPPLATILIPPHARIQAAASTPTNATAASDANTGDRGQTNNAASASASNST
T1 sequence (P02769 25-607): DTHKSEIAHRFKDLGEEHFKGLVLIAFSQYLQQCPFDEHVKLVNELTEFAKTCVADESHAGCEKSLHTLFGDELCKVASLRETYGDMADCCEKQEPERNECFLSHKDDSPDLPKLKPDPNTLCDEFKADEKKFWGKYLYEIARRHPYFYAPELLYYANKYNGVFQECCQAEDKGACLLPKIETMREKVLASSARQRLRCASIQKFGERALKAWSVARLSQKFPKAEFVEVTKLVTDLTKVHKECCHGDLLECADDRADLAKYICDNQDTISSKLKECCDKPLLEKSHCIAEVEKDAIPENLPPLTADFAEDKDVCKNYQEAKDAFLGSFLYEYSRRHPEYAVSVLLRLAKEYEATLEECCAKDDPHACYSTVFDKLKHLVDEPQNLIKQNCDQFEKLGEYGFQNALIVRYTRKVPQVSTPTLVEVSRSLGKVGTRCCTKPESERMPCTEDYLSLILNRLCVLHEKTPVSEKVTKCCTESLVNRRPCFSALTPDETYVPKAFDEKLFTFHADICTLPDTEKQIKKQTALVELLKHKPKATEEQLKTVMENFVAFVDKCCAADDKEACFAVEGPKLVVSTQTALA

Row | SMILES | melting point [°C] | % unbinding compound, albumin [1] [%] | pIC50 [2] | other results
1 | O=c1sn(-c2ccccc2Cc2ccccc2)c(=O)n1Cc1ccccc1 [Compound 9, 4-Benzyl-2-(2-benzyl-phenyl)-[1,2,4]thiadiazolidine-3,5-dione] | 154.9 | 91.4 | 5.10 | –
2 | O=c1sn(C23CC4CC(CC(C4)C2)C3)c(=O)n1Cc1ccccc1 [Compound 3, 2-(1-adamantyl)-4-benzyl-[1,2,4]thiadiazolidine-3,5-dione] | 128.8 | 54.0 | < 4.30 | –
3 | Cc1cccc(C(C)(C)C)c1-n1sc(=O)n(Cc2ccccc2)c1=O [Compound 8, 4-Benzyl-2-(2-tert-butyl-6-methyl-phenyl)-(1,2,4)thiadiazolidine-3,5-dione] | 89.8 | 62.3 | 5.52 | –
4 | O=c1sn(-c2ccc(Oc3ccccc3)cc2)c(=O)n1Cc1ccccc1 [Compound 10, 4-Benzyl-2-(4-phenoxyphenyl)-[1,2,4]thiadiazolidine-3,5-dione] | 88.8 | 98.9 | 5.52 | –
5 | O=c1sn(C(c2ccccc2)c2ccccc2)c(=O)n1Cc1ccccc1 [Compound 6, 4-Benzyl-2-diphenylmethyl-1,2,4-thiadiazolidine-3,5-dione] | 111.5 | 84.0 | 5.70 | –
6 | O=c1sn(-c2ccc3c(c2)OCO3)c(=O)n1Cc1ccccc1 [Compound 5, 4-Benzyl 2-((3,4-methylenedioxy)phenyl)-[1,2,4]thiadiazolidine-3,5-dione] | – | 65.5 | 5.38 | –
7 | O=c1sn(CCc2ccccc2)c(=O)n1Cc1ccccc1 [Compound 1, 2-Phenethyl-4-benzyl-(1,2,4)thiadiazolidine-3,5-dione] | – | 80.2 | 5.52 | –

Further lines, with some results ahead:

Row | melting point [°C] | % unbinding compound, albumin [1] [%] | pIC50 [2] | SMILES | other results
8 | – | 68.3 | > 4.30 | COc1ccc(Cn2sc(=O)n(Cc3ccccc3)c2=O)cc1 [Compound 7, 4-Benzyl-2-(4-methoxybenzyl)-[1,2,4]thiadiazolidine-3,5-dione] | –
9 | – | 57.0 | – | O=c1sn(Cc2ccccc2)c(=O)n1Cc1ccccc1 [2,4-dibenzyl-1,2,4-thiadiazolidine-3,5-dione, reference compound] | –
10 | – | 98.0 | – | O=c1sn(-c2cccc3ccccc23)c(=O)n1Cc1ccccc1 [Compound 2, 4-Benzyl-2-naphthalen-1-yl-[1,2,4]thiadiazolidine-3,5-dione] | bioavailability ([3]; both sexes, C57/BL6, mouse, plasma, oral 20 mg/kg vs intravenous 2 mg/kg): 31.9%; half-life ([3]; both sexes, C57/BL6, mouse, plasma, oral administration of 20 mg/kg): 6 h; Cmax ([3]; both sexes, C57/BL6, mouse, single oral dose 20 mg/kg, plasma): 905 ng/mL; Cmax ([3]; both sexes, C57/BL6, mouse, single oral dose 200 mg/kg, plasma): 9060 ng/mL; Absorption from the GI tract ([3]; after oral administration): quickly absorbed; Levels in the brain ([3]; both after oral and intravenous administration): detected in the brain
11 | – | 67.2 | 5.74 | Cc1ccc(Cn2sc(=O)n(Cc3ccccc3)c2=O)cc1 [Compound 4, 4-Benzyl-2-(4-methyl-benzyl)-[1,2,4]thiadiazolidine-3,5-dione] | –

From patent US8158661B2, “GSK-3 inhibitors” (Noscira, S.A., priority 2004, dated 2012)
